Columns and labels:
CP70 cells [1] = assay: Expression microarray analysis (ECIST panel, triple analysis); assay type: cell-based, human; settings: for number of Group 1 (hypermethylated) loci with increased expression: FIG. 20D; for percent of ECIST loci up-regulated 4-fold or greater / total number of ECISTs up-regulated 4-fold or greater: of 1507 loci, DAC 0.5 μM 4 days, TSA 0.5 μM 12 h
CP70 cells [2] = assay: Semi-quantitative RT-PCR; assay type: cell-based, human; settings: for HSPA.2 expression (RT-PCR): FIG. 21 row 1, no expression in untreated cells; for expression of eight Group 2 loci (RT-PCR): FIGS. 22A, 22B, unmethylated loci
BIK gene = settings: cited from earlier work
MDA-MB-231 cells [3] = assay: ECIST expression microarray, deoxyC-treated vs untreated cells; assay type: cell-based, human
MDA-MB-231 cells [4] = assay: RT-PCR verification of ECIST loci responsive to demethylation; assay type: cell-based, human
[5] = 0.75 μM, 4 days, among 1,162 ECISTs
[6] = average normalized ratio, 0.75 μM treated vs untreated

Question: What does the source list for `Nc1ncn([C@H]2C[C@H](O)[C@@H](CO)O2)c(=O)n1` [DAC, 5-aza-2′-deoxycytidine]?
Answer: expression of Group 2a genes (unmethylated promoters) (CP70 cells [1]): not by DAC alone; number of Group 1 (hypermethylated) loci with increased expression (CP70 cells [1]): 11; percent of ECIST loci up-regulated 4-fold or greater (CP70 cells [1]): 1.9%; total number of ECISTs up-regulated 4-fold or greater (CP70 cells [1]): 29; HSPA.2 expression (RT-PCR) (CP70 cells [2]): increased; expression of eight Group 2 loci (RT-PCR) (CP70 cells [2]): Increased expression of some of these loci; time by which BIK expression returned to control levels (BIK gene; human lung cancer cell line, after treatment): ≤ 72 h; induction of the apoptosis promoting factor BIK (BIK gene; human lung cancer cell line): early induction; number of hypermethylated ECIST loci whose transcripts can be reactivated (MDA-MB-231 cells [3]; 0.75 μM): 30; number of hypermethylated ECIST loci whose transcripts could not be reactivated (or up-regulated) (MDA-MB-231 cells [3]; 0.75 μM): 189; number of loci up-regulated in response to demethylation but not associated with CpG island hypermethylation (MDA-MB-231 cells [3]; 0.75 μM): 96; down-regulated ECIST loci (SAM analysis) (MDA-MB-231 cells [3]; [5]): No down-regulated loci were identified; number of statistically significant up-regulated ECIST loci (SAM, false-positive rate 1%) (MDA-MB-231 cells [3]; [5]): 126; Cy5/Cy3 Expression, CpG5B6 (CYP27B1) (MDA-MB-231 cells [3]; [6]): 2.7; Cy5/Cy3 Expression, CpG6B6 (dJ631M13.5) (MDA-MB-231 cells [3]; [6]): 2.6; Cy5/Cy3 Expression, CpG15E2 (MDA-MB-231 cells [3]; [6]): 3.3; Cy5/Cy3 Expression, CpG21G11 (MDA-MB-231 cells [3]; [6]): 2.9; Cy5/Cy3 Expression, CpG32H12 (MDA-MB-231 cells [3]; [6]): 2.6; Cy5/Cy3 Expression, CpG65A1 (TNS) (MDA-MB-231 cells [3]; [6]): 4.3; Cy5/Cy3 Expression, CpG65C10 (TBX4) (MDA-MB-231 cells [3]; [6]): 4.7; Cy5/Cy3 Expression, DL2F9 (ERCC-1) (MDA-MB-231 cells [3]; [6]): 3.8; Cy5/Cy3 Expression, MP1F6 (LOC84661) (MDA-MB-231 cells [3]; [6]): 2.1; Cy5/Cy3 Expression, MP2F1 (H4FJ) (MDA-MB-231 cells [3]; [6]): 3.2; Cy5/Cy3 Expression, MP2F10 (MDA-MB-231 cells [3]; [6]): 3.2; Cy5/Cy3 Expression, PY1H8 (PSMB4) (MDA-MB-231 cells [3]; [6]): 2.1; Cy5/Cy3 Expression, PY2F1 (FLJ10466) (MDA-MB-231 cells [3]; [6]): 3.2; Cy5/Cy3 Expression, PY3D3 (EST AI023535) (MDA-MB-231 cells [3]; [6]): 2.4; Cy5/Cy3 Expression, PY3D6 (EST BI518683) (MDA-MB-231 cells [3]; [6]): 2.0; Cy5/Cy3 Expression, PY3F2 (HSRN04) (MDA-MB-231 cells [3]; [6]): 2.0; Cy5/Cy3 Expression, SC2C3 (EST BE502068) (MDA-MB-231 cells [3]; [6]): 4.9; Cy5/Cy3 Expression, SC8F2 (RPS16) (MDA-MB-231 cells [3]; [6]): 2.0; Cy5/Cy3 Expression, SC12A2 (SAAS) (MDA-MB-231 cells [3]; [6]): 2.2; Cy5/Cy3 Expression, SC13D6 (EST183864) (MDA-MB-231 cells [3]; [6]): 2.1; Cy5/Cy3 Expression, SC15E7 (MDA-MB-231 cells [3]; [6]): 4.0; Cy5/Cy3 Expression, SC15H6 (H2BFR) (MDA-MB-231 cells [3]; [6]): 2.6; Cy5/Cy3 Expression, SC19F1 (EST BE838797) (MDA-MB-231 cells [3]; [6]): 2.7; Cy5/Cy3 Expression, SC20G3 (HOXD3) (MDA-MB-231 cells [3]; [6]): 2.3; Cy5/Cy3 Expression, SC21A8 (U3B2) (MDA-MB-231 cells [3]; [6]): 3.2; Cy5/Cy3 Expression, SC21G11 (HSPA2) (MDA-MB-231 cells [3]; [6]): 5.4; Cy5/Cy3 Expression, SC40C8 (H2BFG) (MDA-MB-231 cells [3]; [6]): 2.7; Cy5/Cy3 Expression, SC77F6 (TTF-1) (MDA-MB-231 cells [3]; [6]): 3.8; Cy5/Cy3 Expression, SC87E7 (EST AA365852) (MDA-MB-231 cells [3]; [6]): 2.4; Cy5/Cy3 Expression, SC89F2 (HAGE) (MDA-MB-231 cells [3]; [6]): 14.6; expression of CYP27B1, HSPA2, TTF-1, FLJ10466 and EST183864 by RT-PCR (MDA-MB-231 cells [4]; 0.75 μM treated vs untreated, FIG. 17A): reactivated; expression levels of CpG12F10, MP2A3 and MP3D7 by RT-PCR (MDA-MB-231 cells [4]; treated relative to untreated cells, loci not hypermethylated, FIG. 17B): increased

Question: Which “expression of Group 2a genes (unmethylated promoters)” value (CP70 cells [1]) does the source give for `CC(/C=C/C(=O)NO)=C\[C@@H](C)C(=O)c1ccc(N(C)C)cc1` [TSA, trichostatin A] here?
Answer: increased expression

Question: And the “number of Group 1 (hypermethylated) loci with increased expression” value (CP70 cells [1])?
Answer: No significant change in expression

Question: And the “percent of ECIST loci up-regulated 4-fold or greater” value (CP70 cells [1])?
Answer: 1.1%

Question: And the “total number of ECISTs up-regulated 4-fold or greater” value (CP70 cells [1])?
Answer: 17

Question: And the “HSPA.2 expression (RT-PCR)” value (CP70 cells [2])?
Answer: remained unchanged

Question: What about the “expression of eight Group 2 loci (RT-PCR)” value (CP70 cells [2]) of the same compound?
Answer: Increased expression of some of these loci

Question: What about the “induction of the BIK gene” value (BIK gene; Suzuki et al., cell line not stated) of the same compound?
Answer: induced in a methylation-independent manner

From US7563567B1, “Use of ECIST microarrays in an integrated method for assessing DNA methylation, gene expression and histone acetylation” (The Curators of the Univeristy of Missouri of Columbia, priority 2002, dated 2009)
